The record followed here is ChEMBL document CHEMBL1150972, “Biochemical and cellular effects of c-Src kinase-selective pyrido[2, 3-d]pyrimidine tyrosine kinase inhibitors” (Biochem Pharmacol, 2000).

Assay [1] relates to SW-620. Description: Inhibition of SW-620 clonogenic growth in soft agar with pretreatment. Format: functional, cell-based. To be noted: Homo sapiens.
The subject of assay [2] is SW-620. The experiment in a line: Inhibition of SW-620 cell proliferation. In kind it is functional, cell-based. To be noted: Homo sapiens.
For assay [3], the target named is Tyrosine-protein kinase Lck (Homo sapiens, UniProt P06239). Description: Inhibition of Lck.
The test system of assay [4] is HT-29. The experiment in a line: Inhibition of HT-29 clonogenic growth in soft agar without pretreatment. In kind it is functional, cell-based. To be noted: Homo sapiens.
Assay [5] has as its system HCT-8. Description: Inhibition of HCT-8 cell proliferation. In kind it is functional, cell-based. To be noted: Homo sapiens.
The test system of assay [6] is HCT-8. Description: Inhibition of HCT-8 clonogenic growth in soft agar without pretreatment. Format: functional, cell-based. To be noted: Homo sapiens.
Assay [7] concerns HT-29. Description: Inhibition of HT-29 cell proliferation. Format: functional, cell-based. To be noted: Homo sapiens.
For assay [8], the system named is HT-29. The experiment in a line: Inhibition of HT-29 clonogenic growth in soft agar with pretreatment. In kind it is functional, cell-based. To be noted: Homo sapiens.
Assay [9] concerns SW-620. The experiment in a line: Inhibition of SW-620 clonogenic growth in soft agar without pretreatment. In kind it is functional, cell-based. To be noted: Homo sapiens.
For assay [10], the species on record is Homo sapiens. Description: Selectivity for c-Src compared to bFGFR.
Assay [11] deals with HCT-8. Description: Inhibition of HCT-8 clonogenic growth in soft agar with pretreatment. In kind it is functional, cell-based. To be noted: Homo sapiens.
For assay [12], the target named is Platelet-derived growth factor receptor (Homo sapiens, UniProt P09619+P16234). The experiment in a line: Inhibition of PDGFR. In kind it is protein-complex assay.
In assay [13] the target is Fibroblast growth factor receptor 1 (Homo sapiens, UniProt P11362). Description: Inhibition of bFGFR.
Another assay relates to NIH3T3. Description: Inhibition of 3H-thymidine incorporation into NIH3T3 cells. In kind it is functional, cell-based. To be noted: Mus musculus.
Assay [14] is filed under the species Homo sapiens. The experiment in a line: Selectivity for c-Src compared to PDGFR.
The next assay relates to A-431. The experiment in a line: Inhibition of 3H-thymidine incorporation into A-431 cells. In kind it is functional, cell-based. To be noted: Homo sapiens.
In assay [15] the target is Proto-oncogene tyrosine-protein kinase Src (Homo sapiens, UniProt P12931). The experiment in a line: Inhibition of c-Src.
Assay [16] deals with Epidermal growth factor receptor (Homo sapiens, UniProt P00533).

pIC50: −log10 of the molar value. A value given as a limit tells only on which side of the number the result lay.

Sequence of Proto-oncogene tyrosine-protein kinase Src (P12931 2-536 limits assumed): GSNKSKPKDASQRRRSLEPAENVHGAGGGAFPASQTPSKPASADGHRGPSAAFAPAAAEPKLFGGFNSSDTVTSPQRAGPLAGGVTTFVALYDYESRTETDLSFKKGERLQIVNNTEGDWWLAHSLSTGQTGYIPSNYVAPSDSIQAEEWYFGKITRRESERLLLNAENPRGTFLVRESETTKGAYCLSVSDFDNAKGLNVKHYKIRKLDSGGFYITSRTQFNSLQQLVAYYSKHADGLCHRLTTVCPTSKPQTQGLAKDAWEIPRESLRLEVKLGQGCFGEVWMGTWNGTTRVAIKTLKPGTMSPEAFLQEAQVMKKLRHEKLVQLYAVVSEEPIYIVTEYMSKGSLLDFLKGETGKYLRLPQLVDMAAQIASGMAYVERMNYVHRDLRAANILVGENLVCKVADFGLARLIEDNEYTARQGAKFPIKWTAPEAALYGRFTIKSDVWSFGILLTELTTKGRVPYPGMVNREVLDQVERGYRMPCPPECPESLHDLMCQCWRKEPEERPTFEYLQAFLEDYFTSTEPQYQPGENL
Sequence of Fibroblast growth factor receptor 1 (P11362 whole entry): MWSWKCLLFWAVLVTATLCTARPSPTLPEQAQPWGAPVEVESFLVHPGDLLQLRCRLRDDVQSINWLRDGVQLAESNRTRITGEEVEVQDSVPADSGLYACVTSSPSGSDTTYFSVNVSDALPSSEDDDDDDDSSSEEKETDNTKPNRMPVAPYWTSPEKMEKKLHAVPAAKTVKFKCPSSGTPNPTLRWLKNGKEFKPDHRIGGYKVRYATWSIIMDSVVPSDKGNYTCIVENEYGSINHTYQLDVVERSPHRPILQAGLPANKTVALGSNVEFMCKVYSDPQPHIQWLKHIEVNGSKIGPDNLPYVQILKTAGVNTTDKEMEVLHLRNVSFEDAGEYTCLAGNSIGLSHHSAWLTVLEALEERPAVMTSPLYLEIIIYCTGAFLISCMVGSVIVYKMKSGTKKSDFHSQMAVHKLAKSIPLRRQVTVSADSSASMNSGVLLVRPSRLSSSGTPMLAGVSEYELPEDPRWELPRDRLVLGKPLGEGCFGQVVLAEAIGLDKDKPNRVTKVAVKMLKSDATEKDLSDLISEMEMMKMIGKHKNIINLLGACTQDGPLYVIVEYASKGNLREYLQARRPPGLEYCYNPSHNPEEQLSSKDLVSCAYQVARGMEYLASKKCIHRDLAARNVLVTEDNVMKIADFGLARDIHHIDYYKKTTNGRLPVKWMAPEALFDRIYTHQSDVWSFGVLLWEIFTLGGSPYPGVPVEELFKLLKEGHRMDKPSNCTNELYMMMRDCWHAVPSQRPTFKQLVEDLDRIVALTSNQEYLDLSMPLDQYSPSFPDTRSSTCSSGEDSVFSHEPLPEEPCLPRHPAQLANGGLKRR
Sequence of Tyrosine-protein kinase Lck (P06239 whole entry): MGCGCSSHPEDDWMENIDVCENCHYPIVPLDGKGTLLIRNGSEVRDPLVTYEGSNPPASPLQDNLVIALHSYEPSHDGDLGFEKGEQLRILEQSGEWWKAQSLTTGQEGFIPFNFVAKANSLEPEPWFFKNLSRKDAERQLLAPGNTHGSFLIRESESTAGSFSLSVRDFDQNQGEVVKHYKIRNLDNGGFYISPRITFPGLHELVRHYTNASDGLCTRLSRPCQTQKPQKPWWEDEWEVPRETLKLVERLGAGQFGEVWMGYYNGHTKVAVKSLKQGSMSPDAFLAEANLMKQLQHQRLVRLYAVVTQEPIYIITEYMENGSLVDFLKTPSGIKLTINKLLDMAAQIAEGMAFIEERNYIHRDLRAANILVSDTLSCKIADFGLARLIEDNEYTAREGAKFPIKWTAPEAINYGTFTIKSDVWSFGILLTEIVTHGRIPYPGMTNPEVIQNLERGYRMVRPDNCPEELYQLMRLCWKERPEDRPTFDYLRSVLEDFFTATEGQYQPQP
Sequence of Epidermal growth factor receptor (P00533 whole entry): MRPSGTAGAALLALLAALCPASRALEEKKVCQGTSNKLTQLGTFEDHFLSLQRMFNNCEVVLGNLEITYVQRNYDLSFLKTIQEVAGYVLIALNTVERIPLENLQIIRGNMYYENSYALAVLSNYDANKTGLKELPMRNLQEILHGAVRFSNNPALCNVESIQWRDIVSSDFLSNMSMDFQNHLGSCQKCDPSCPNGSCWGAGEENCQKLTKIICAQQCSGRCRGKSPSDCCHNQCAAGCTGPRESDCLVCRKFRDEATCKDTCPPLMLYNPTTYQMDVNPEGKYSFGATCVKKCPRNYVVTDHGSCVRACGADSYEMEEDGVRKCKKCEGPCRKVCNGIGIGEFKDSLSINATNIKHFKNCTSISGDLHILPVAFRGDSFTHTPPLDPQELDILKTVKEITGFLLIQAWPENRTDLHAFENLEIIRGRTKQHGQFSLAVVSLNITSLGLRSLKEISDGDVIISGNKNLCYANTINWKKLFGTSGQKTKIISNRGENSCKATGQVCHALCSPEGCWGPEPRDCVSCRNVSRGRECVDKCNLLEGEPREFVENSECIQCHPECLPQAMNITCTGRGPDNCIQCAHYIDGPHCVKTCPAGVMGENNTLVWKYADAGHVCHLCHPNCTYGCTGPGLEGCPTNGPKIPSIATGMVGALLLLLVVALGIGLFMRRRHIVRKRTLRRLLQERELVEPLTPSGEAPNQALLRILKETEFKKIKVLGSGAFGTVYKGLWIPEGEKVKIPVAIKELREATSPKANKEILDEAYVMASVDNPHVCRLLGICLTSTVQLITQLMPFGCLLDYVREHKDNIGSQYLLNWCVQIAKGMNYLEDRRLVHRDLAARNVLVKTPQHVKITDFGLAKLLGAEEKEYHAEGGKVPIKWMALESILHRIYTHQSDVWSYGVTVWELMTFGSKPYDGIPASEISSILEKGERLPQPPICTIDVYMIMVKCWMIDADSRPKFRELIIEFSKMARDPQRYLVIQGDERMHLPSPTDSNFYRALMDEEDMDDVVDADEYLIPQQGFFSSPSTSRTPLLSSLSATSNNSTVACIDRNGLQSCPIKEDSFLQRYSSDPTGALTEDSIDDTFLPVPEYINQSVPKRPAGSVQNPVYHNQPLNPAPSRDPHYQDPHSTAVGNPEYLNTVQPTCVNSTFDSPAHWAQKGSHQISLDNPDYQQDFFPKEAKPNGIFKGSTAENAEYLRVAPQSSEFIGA

On to `Cn1c(=O)c(-c2c(Cl)cccc2Cl)cc2cnc(Nc3ccc(F)cc3)nc21`, for which the pIC50 in the assay on SW-620 [1] was 5.81; with SW-620 [2], 6.21; in assay [3] it was greater than 8.30; in the assay on HT-29 [4], 5.81; in the assay with HCT-8 [5] it was 6.18; in the assay on HCT-8 [6], 5.94. Besides, the results for the pIC50 with HT-29 [7], in the assay with HT-29 [8] and in the assay on SW-620 [9] were 6.21, 5.82 and 6.40, respectively.
Take `Cn1c(=O)c(-c2c(Cl)cccc2Cl)cc2cnc(Nc3ccc(N4CCOCC4)cc3)nc21`: the pIC50 in the assay on SW-620 [1] was 6.28; in assay [3], greater than 8.30; in the assay with HT-29 [4], 5.86; with HCT-8 [11] it was 5.86; with HCT-8 [6], 5.90; in [12], 6.20. Moreover, the pIC50 in assay [13] is 7.01; in the assay on NIH3T3, 6.77; in the assay on A-431 it was 6.61; in assay [15], 8.08; in the assay with HT-29 [8], 5.92; in the assay with SW-620 [9], 6.33. The Ratio in the assay filed under Homo sapiens [10] came out at 11.8; in the assay listed under Homo sapiens [14] it was 76.2.
As for `Cc1cc(Nc2ncc3cc(-c4c(Cl)cccc4Cl)c(=O)n(C)c3n2)ccc1F`, the figures for the Ratio in the assay listed under Homo sapiens [10] and in the assay filed under Homo sapiens [14] were 55.6 and 84.9, respectively. In addition, the pIC50 in the assay with SW-620 [2] is 6.55; in [3], greater than 8.30; with HT-29 [4], 5.82; in the assay with HCT-8 [5], 6.35; with HCT-8 [11], 6.21; with HCT-8 [6], 6.59. Besides, the pIC50 in assay [12] was 5.84; in the assay with HT-29 [7] it was 6.34; in assay [13] it was 6.03; in the assay with NIH3T3, 6.77; in assay [16], 6.41; in the assay with A-431, 6.67. Also, the pIC50 is 7.77 in assay [15] and 6.33 with HT-29 [8].
As for `CSc1cccc(Nc2ncc3cc(-c4c(Cl)cccc4Cl)c(=O)n(C)c3n2)c1`, the pIC50 is 5.95 with SW-620 [1]; 6.03 with SW-620 [2]; greater than 8.30 in [3]; 5.89 in the assay with HT-29 [4]; 5.95 with HCT-8 [5]; 5.60 with HCT-8 [11]. For the same compound, the pIC50 in the assay on HCT-8 [6] was 5.89; in the assay on HT-29 [7] it was 6.09; in assay [13], 5.90; in the assay with HT-29 [8], 5.92; with SW-620 [9], 6.01.
Consider `CCN(CCOc1ccc(Nc2ncc3cc(-c4c(Cl)cccc4Cl)c(=O)n(C)c3n2)cc1)C(C)=O`, for which the Ratio worked out at 27 in the assay filed under Homo sapiens [10] and 51.2 in the assay filed under Homo sapiens [14]. Moreover, the pIC50 in the assay with SW-620 [2] is 6.81; in [3], greater than 8.30; in the assay with HT-29 [4], greater than 5.30; with HCT-8 [5], 6.00; in the assay with HCT-8 [11], less than 5.30; in the assay with HCT-8 [6], less than 5.30. The pIC50 was 6.33 in [12]; 6.58 with HT-29 [7]; 6.61 in assay [13]; 8.04 in assay [15]; 5.76 in the assay with HT-29 [8].
As to `CCOc1ccc(Nc2ncc3cc(-c4c(Cl)cccc4Cl)c(=O)n(C)c3n2)cc1`, the pIC50 is 6.34 in the assay on SW-620 [1]; 6.18 with SW-620 [2]; greater than 8.30 in [3]; 6.00 with HT-29 [4]; 5.94 with HCT-8 [5]; 5.49 in the assay on HCT-8 [11]. The negative logarithm of the IC50 (pIC50) is 5.90 in the assay on HCT-8 [6]; 5.63 in assay [12]; 6.24 in the assay on HT-29 [7]; 6.35 in [13]; 6.42 in the assay with NIH3T3; 6.35 with A-431. Besides, the pIC50 in [15] is 7.79; in the assay on HT-29 [8], 6.12; with SW-620 [9] it was 6.44. Moreover, the Ratio was found to be 27.7 in the assay listed under Homo sapiens [10] and 144 in the assay listed under Homo sapiens [14].
